The results in this text go back to publication PMC10384657 (Virus Research, 2023).

SMILES strings stand for the structures.

The test system of the first data set is Vero E6 cells. As to conditions: 72 h.
On to `CC[C@H](C)[C@H](NC(=O)[C@H](CCC(N)=O)NC(=O)[C@H](CC(C)C)NC(=O)[C@H](C)NC(=O)[C@H](C)NC(=O)CNC(=O)[C@H](C)NC(=O)CNC(=O)[C@H](Cc1ccccc1)NC(=O)[C@@H](NC(=O)[C@H](Cc1c[nH]c2ccccc12)NC(=O)CNC(=O)[C@H](CO)NC(C)=O)[C@@H](C)O)C(=O)N1CCC[C@H]1C(=O)N[C@@H](Cc1ccccc1)C(=O)N[C@@H](C)C(=O)N[C@@H](CCSC)C(N)=O` [PC17], for which the “CC50 (mean ± SD)” value was more than 100 µM.
The same measure, in the same setting: the figure for `CC[C@H](C)[C@H](NC(=O)[C@H](CCC(N)=O)NC(=O)[C@H](CC(C)C)NC(=O)[C@H](C)NC(=O)[C@H](C)NC(=O)CNC(=O)[C@H](C)NC(=O)CNC(=O)[C@H](Cc1ccccc1)NC(=O)[C@@H](NC(=O)[C@H](Cc1c[nH]c2ccccc12)NC(=O)CNC(=O)[C@H](CO)NC(C)=O)[C@@H](C)O)C(=O)N1CCC[C@H]1C(=O)N[C@@H](Cc1ccccc1)C(=O)N[C@@H](C)C(=O)N[C@@H](CCSC)C(=O)N[C@@H](CCC(N)=O)C(=O)N[C@@H](CCSC)C(N)=O` [PC19] is more than 100 µM; for `CSCC[C@H](NC(=O)[C@H](C)NC(=O)[C@H](Cc1ccccc1)NC(C)=O)C(=O)N[C@@H](CCC(N)=O)C(=O)N[C@@H](CCSC)C(=O)N[C@@H](C)C(=O)N[C@@H](Cc1ccc(O)cc1)C(=O)N[C@@H](CCCNC(=N)N)C(=O)N[C@@H](Cc1ccccc1)C(N)=O` [PN9] it is more than 100 µM.
Same read-out and setting: for `CC[C@H](C)[C@H](NC(=O)[C@H](CCC(N)=O)NC(=O)[C@H](CC(C)C)NC(C)=O)C(=O)N1CCC[C@H]1C(=O)N[C@@H](Cc1ccccc1)C(=O)N[C@@H](C)C(=O)N[C@@H](CCSC)C(=O)N[C@@H](CCC(N)=O)C(=O)N[C@@H](CCSC)C(=O)N[C@@H](C)C(=O)N[C@@H](Cc1ccc(O)cc1)C(=O)N[C@@H](CCCNC(=N)N)C(=O)N[C@@H](Cc1ccccc1)C(N)=O` [PN13] the value was more than 100 µM; for `CC[C@H](C)[C@H](NC(=O)[C@H](CCC(N)=O)NC(=O)[C@H](CC(C)C)NC(=O)[C@H](C)NC(=O)[C@H](C)NC(=O)CNC(=O)[C@H](C)NC(C)=O)C(=O)N1CCC[C@H]1C(=O)N[C@@H](Cc1ccccc1)C(=O)N[C@@H](C)C(=O)N[C@@H](CCSC)C(=O)N[C@@H](CCC(N)=O)C(=O)N[C@@H](CCSC)C(=O)N[C@@H](C)C(=O)N[C@@H](Cc1ccc(O)cc1)C(=O)N[C@@H](CCCNC(=N)N)C(=O)N[C@@H](Cc1ccccc1)C(N)=O` [PN17], more than 100 µM; for `CC[C@H](C)[C@H](NC(=O)[C@H](CCC(N)=O)NC(=O)[C@H](CC(C)C)NC(=O)[C@H](C)NC(=O)[C@H](C)NC(=O)CNC(=O)[C@H](C)NC(=O)CNC(=O)[C@H](C)NC(C)=O)C(=O)N1CCC[C@H]1C(=O)N[C@@H](Cc1ccccc1)C(=O)N[C@@H](C)C(=O)N[C@@H](CCSC)C(=O)N[C@@H](CCC(N)=O)C(=O)N[C@@H](CCSC)C(=O)N[C@@H](C)C(=O)N[C@@H](Cc1ccc(O)cc1)C(=O)N[C@@H](CCCNC(=N)N)C(=O)N[C@@H](Cc1ccccc1)C(N)=O` [PN19F→A888], more than 100 µM.
Same read-out and setting: for `CC[C@H](C)[C@H](NC(=O)[C@H](CCC(N)=O)NC(=O)[C@H](CC(C)C)NC(=O)[C@H](C)NC(=O)[C@H](C)NC(=O)CNC(=O)[C@H](C)NC(=O)CNC(=O)[C@H](Cc1ccccc1)NC(C)=O)C(=O)N1CCC[C@H]1C(=O)N[C@@H](C)C(=O)N[C@@H](C)C(=O)N[C@@H](CCSC)C(=O)N[C@@H](CCC(N)=O)C(=O)N[C@@H](CCSC)C(=O)N[C@@H](C)C(=O)N[C@@H](Cc1ccc(O)cc1)C(=O)N[C@@H](CCCNC(=N)N)C(=O)N[C@@H](Cc1ccccc1)C(N)=O` [PN19F→A898] the value was more than 100 µM; for `CC[C@H](C)[C@H](NC(=O)[C@H](CCC(N)=O)NC(=O)[C@H](CC(C)C)NC(=O)[C@H](C)NC(=O)[C@H](C)NC(=O)CNC(=O)[C@H](C)NC(=O)CNC(=O)[C@H](Cc1ccccc1)NC(C)=O)C(=O)N1CCC[C@H]1C(=O)N[C@@H](Cc1ccccc1)C(=O)N[C@@H](C)C(=O)N[C@@H](CCSC)C(=O)N[C@@H](CCC(N)=O)C(=O)N[C@@H](CCSC)C(=O)N[C@@H](C)C(=O)N[C@@H](Cc1ccc(O)cc1)C(=O)N[C@@H](CCCNC(=N)N)C(=O)N[C@@H](C)C(N)=O` [PN19F→A906], more than 100 µM.
For `CSCC[C@H](NC(=O)[C@H](C)NC(=O)[C@H](Cc1ccccc1)NC(=O)[C@@H]1CCCN1C(=O)[C@H](C)NC(=O)[C@H](CCC(N)=O)NC(=O)[C@H](CC(C)C)NC(=O)[C@H](C)NC(=O)[C@H](C)NC(=O)CNC(=O)[C@H](C)NC(=O)CNC(=O)[C@H](Cc1ccccc1)NC(C)=O)C(=O)N[C@@H](CCC(N)=O)C(=O)N[C@@H](CCSC)C(=O)N[C@@H](C)C(=O)N[C@@H](Cc1ccc(O)cc1)C(=O)N[C@@H](CCCNC(=N)N)C(=O)N[C@@H](Cc1ccccc1)C(N)=O` [PN19I→A896], the “CC50 (mean ± SD)” value is more than 100 µM.
`CC[C@H](C)[C@H](NC(=O)[C@H](CCC(N)=O)NC(=O)[C@H](C)NC(=O)[C@H](C)NC(=O)[C@H](C)NC(=O)CNC(=O)[C@H](C)NC(=O)CNC(=O)[C@H](Cc1ccccc1)NC(C)=O)C(=O)N1CCC[C@H]1C(=O)N[C@@H](Cc1ccccc1)C(=O)N[C@@H](C)C(=O)N[C@@H](CCSC)C(=O)N[C@@H](CCC(N)=O)C(=O)N[C@@H](CCSC)C(=O)N[C@@H](C)C(=O)N[C@@H](Cc1ccc(O)cc1)C(=O)N[C@@H](CCCNC(=N)N)C(=O)N[C@@H](Cc1ccccc1)C(N)=O` [PN19L→A894]: the “CC50 (mean ± SD)” value was more than 100 µM.
On the same count and under the same terms, the figure for `CC[C@H](C)[C@H](NC(=O)[C@H](CCC(N)=O)NC(=O)[C@H](CC(C)C)NC(=O)[C@H](C)NC(=O)[C@H](C)NC(=O)CNC(=O)[C@H](C)NC(=O)CNC(=O)[C@H](Cc1ccccc1)NC(C)=O)C(=O)N1CCC[C@H]1C(=O)N[C@@H](Cc1ccccc1)C(=O)N[C@@H](C)C(=O)N[C@@H](C)C(=O)N[C@@H](CCC(N)=O)C(=O)N[C@@H](CCSC)C(=O)N[C@@H](C)C(=O)N[C@@H](Cc1ccc(O)cc1)C(=O)N[C@@H](CCCNC(=N)N)C(=O)N[C@@H](Cc1ccccc1)C(N)=O` [PN19M→A900] is more than 100 µM; for `CC[C@H](C)[C@H](NC(=O)[C@H](CCC(N)=O)NC(=O)[C@H](CC(C)C)NC(=O)[C@H](C)NC(=O)[C@H](C)NC(=O)CNC(=O)[C@H](C)NC(=O)CNC(=O)[C@H](Cc1ccccc1)NC(C)=O)C(=O)N1CCC[C@H]1C(=O)N[C@@H](Cc1ccccc1)C(=O)N[C@@H](C)C(=O)N[C@@H](CCSC)C(=O)N[C@@H](CCC(N)=O)C(=O)N[C@@H](C)C(=O)N[C@@H](C)C(=O)N[C@@H](Cc1ccc(O)cc1)C(=O)N[C@@H](CCCNC(=N)N)C(=O)N[C@@H](Cc1ccccc1)C(N)=O` [PN19M→A902] it is more than 100 µM; for `CC[C@H](C)[C@H](NC(=O)[C@H](CCC(N)=O)NC(=O)[C@H](CC(C)C)NC(=O)[C@H](C)NC(=O)[C@H](C)NC(=O)CNC(=O)[C@H](C)NC(=O)CNC(=O)[C@H](Cc1ccccc1)NC(C)=O)C(=O)N[C@@H](C)C(=O)N[C@@H](Cc1ccccc1)C(=O)N[C@@H](C)C(=O)N[C@@H](CCSC)C(=O)N[C@@H](CCC(N)=O)C(=O)N[C@@H](CCSC)C(=O)N[C@@H](C)C(=O)N[C@@H](Cc1ccc(O)cc1)C(=O)N[C@@H](CCCNC(=N)N)C(=O)N[C@@H](Cc1ccccc1)C(N)=O` [PN19P→A897] it is more than 100 µM.
Still for that read-out and setting: the figure for `CC[C@H](C)[C@H](NC(=O)[C@H](C)NC(=O)[C@H](CC(C)C)NC(=O)[C@H](C)NC(=O)[C@H](C)NC(=O)CNC(=O)[C@H](C)NC(=O)CNC(=O)[C@H](Cc1ccccc1)NC(C)=O)C(=O)N1CCC[C@H]1C(=O)N[C@@H](Cc1ccccc1)C(=O)N[C@@H](C)C(=O)N[C@@H](CCSC)C(=O)N[C@@H](CCC(N)=O)C(=O)N[C@@H](CCSC)C(=O)N[C@@H](C)C(=O)N[C@@H](Cc1ccc(O)cc1)C(=O)N[C@@H](CCCNC(=N)N)C(=O)N[C@@H](Cc1ccccc1)C(N)=O` [PN19Q→A895] is more than 100 µM; for `CC[C@H](C)[C@H](NC(=O)[C@H](CCC(N)=O)NC(=O)[C@H](CC(C)C)NC(=O)[C@H](C)NC(=O)[C@H](C)NC(=O)CNC(=O)[C@H](C)NC(=O)CNC(=O)[C@H](Cc1ccccc1)NC(C)=O)C(=O)N1CCC[C@H]1C(=O)N[C@@H](Cc1ccccc1)C(=O)N[C@@H](C)C(=O)N[C@@H](CCSC)C(=O)N[C@@H](C)C(=O)N[C@@H](CCSC)C(=O)N[C@@H](C)C(=O)N[C@@H](Cc1ccc(O)cc1)C(=O)N[C@@H](CCCNC(=N)N)C(=O)N[C@@H](Cc1ccccc1)C(N)=O` [PN19Q→A901] it is more than 100 µM; for `CC[C@H](C)[C@H](NC(=O)[C@H](CCC(N)=O)NC(=O)[C@H](CC(C)C)NC(=O)[C@H](C)NC(=O)[C@H](C)NC(=O)CNC(=O)[C@H](C)NC(=O)CNC(=O)[C@H](Cc1ccccc1)NC(C)=O)C(=O)N1CCC[C@H]1C(=O)N[C@@H](Cc1ccccc1)C(=O)N[C@@H](C)C(=O)N[C@@H](CCSC)C(=O)N[C@@H](CCC(N)=O)C(=O)N[C@@H](CCSC)C(=O)N[C@@H](C)C(=O)N[C@@H](Cc1ccc(O)cc1)C(=O)N[C@@H](C)C(=O)N[C@@H](Cc1ccccc1)C(N)=O` [PN19R→A905] it is more than 100 µM.
The same measure, in the same setting: the figure for `CC[C@H](C)[C@H](NC(=O)[C@H](CCC(N)=O)NC(=O)[C@H](CC(C)C)NC(=O)[C@H](C)NC(=O)[C@H](C)NC(=O)CNC(=O)[C@H](C)NC(=O)CNC(=O)[C@H](Cc1ccccc1)NC(C)=O)C(=O)N1CCC[C@H]1C(=O)N[C@@H](Cc1ccccc1)C(=O)N[C@@H](C)C(=O)N[C@@H](CCSC)C(=O)N[C@@H](CCC(N)=O)C(=O)N[C@@H](CCSC)C(N)=O` [PNC15] is more than 100 µM.
With `CC[C@H](C)[C@H](NC(=O)[C@H](CCC(N)=O)NC(=O)[C@H](CC(C)C)NC(=O)[C@H](C)NC(=O)[C@H](C)NC(=O)CNC(=O)[C@H](C)NC(=O)CNC(=O)[C@H](Cc1ccccc1)NC(=O)[C@@H](NC(=O)[C@H](Cc1c[nH]c2ccccc12)NC(C)=O)[C@@H](C)O)C(=O)N1CCC[C@H]1C(=O)N[C@@H](Cc1ccccc1)C(=O)N[C@@H](C)C(=O)N[C@@H](CCSC)C(=O)N[C@@H](CCC(N)=O)C(=O)N[C@@H](CCSC)C(=O)N[C@@H](C)C(=O)N[C@@H](Cc1ccc(O)cc1)C(N)=O` [PNC19], the “CC50 (mean ± SD)” value is more than 100 µM.

The next data set relates to MPER25c peptide (S2 membrane proximal region derived). The class given is binding, SARS-CoV-2.
Conditions: not given
Turning to `CC[C@H](C)[C@H](NC(=O)[C@H](CCC(N)=O)NC(=O)[C@H](CC(C)C)NC(=O)[C@H](C)NC(=O)[C@H](C)NC(=O)CNC(=O)[C@H](C)NC(=O)CNC(=O)[C@H](Cc1ccccc1)NC(C)=O)C(=O)N1CCC[C@H]1C(=O)N[C@@H](C)C(=O)N[C@@H](C)C(=O)N[C@@H](CCSC)C(=O)N[C@@H](CCC(N)=O)C(=O)N[C@@H](CCSC)C(=O)N[C@@H](C)C(=O)N[C@@H](Cc1ccc(O)cc1)C(=O)N[C@@H](CCCNC(=N)N)C(=O)N[C@@H](Cc1ccccc1)C(N)=O` [PN19F→A898], the “fold lower binding activity to immobilized MPER25c than PN19” value is 2-3 fold.
For `CC[C@H](C)[C@H](NC(=O)[C@H](CCC(N)=O)NC(=O)[C@H](CC(C)C)NC(=O)[C@H](C)NC(=O)[C@H](C)NC(=O)CNC(=O)[C@H](C)NC(=O)CNC(=O)[C@H](Cc1ccccc1)NC(C)=O)C(=O)N1CCC[C@H]1C(=O)N[C@@H](Cc1ccccc1)C(=O)N[C@@H](C)C(=O)N[C@@H](CCSC)C(=O)N[C@@H](CCC(N)=O)C(=O)N[C@@H](CCSC)C(=O)N[C@@H](C)C(=O)N[C@@H](Cc1ccc(O)cc1)C(=O)N[C@@H](CCCNC(=N)N)C(=O)N[C@@H](C)C(N)=O` [PN19F→A906], the “fold lower binding activity to immobilized MPER25c than PN19” value is listed as 2-3 fold.
